Laboratory results: ChEMBL document CHEMBL1212695, “An allosteric potentiator of M4 mAChR modulates hippocampal synaptic transmission” (Nat Chem Biol, 2008)
The source made the active and inactive calls. The calls are words filed in the database; no cut-off is given here.

Tests used:
[1] = target: Muscarinic acetylcholine receptor M3 (Rattus norvegicus) (UniProt P08483); assay: Allosteric activation of rat recombinant muscarinic M3 receptor expressed in CHO cells assessed as potentiation of acetylcholine-induced calcium mobilization at 10 uM after 1 hr by fluorescence assay; type: functional, cell-based
Sequence of Muscarinic acetylcholine receptor M3 (Rattus norvegicus) (P08483 whole entry, looked up): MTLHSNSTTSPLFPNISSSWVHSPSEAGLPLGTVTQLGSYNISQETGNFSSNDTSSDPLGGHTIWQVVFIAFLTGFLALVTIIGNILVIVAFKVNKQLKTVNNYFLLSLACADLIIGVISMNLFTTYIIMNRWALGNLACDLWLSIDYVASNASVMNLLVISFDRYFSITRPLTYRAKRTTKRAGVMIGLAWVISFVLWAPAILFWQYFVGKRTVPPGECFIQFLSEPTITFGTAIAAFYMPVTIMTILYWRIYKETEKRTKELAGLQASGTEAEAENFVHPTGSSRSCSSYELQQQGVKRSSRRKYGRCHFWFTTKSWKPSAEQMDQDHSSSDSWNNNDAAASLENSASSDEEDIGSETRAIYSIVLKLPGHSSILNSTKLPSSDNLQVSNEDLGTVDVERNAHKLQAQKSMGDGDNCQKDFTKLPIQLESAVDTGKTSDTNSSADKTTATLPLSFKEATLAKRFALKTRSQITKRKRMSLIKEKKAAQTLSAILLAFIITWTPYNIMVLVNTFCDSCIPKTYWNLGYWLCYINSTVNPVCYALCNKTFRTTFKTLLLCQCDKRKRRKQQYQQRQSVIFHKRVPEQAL

[2] = target: T1, Muscarinic acetylcholine receptor M4 (Mus musculus) (UniProt P32211); assay: Agonist activity at muscarinic M4 receptor in wild type mouse hippocampal CA1 pyramidal neuron assessed as reduction of excitatory postsynaptic current at 2 uM by whole-cell electrophysiology relative to control; type: functional, tissue-based; details: Hippocampus
T1 sequence (whole entry): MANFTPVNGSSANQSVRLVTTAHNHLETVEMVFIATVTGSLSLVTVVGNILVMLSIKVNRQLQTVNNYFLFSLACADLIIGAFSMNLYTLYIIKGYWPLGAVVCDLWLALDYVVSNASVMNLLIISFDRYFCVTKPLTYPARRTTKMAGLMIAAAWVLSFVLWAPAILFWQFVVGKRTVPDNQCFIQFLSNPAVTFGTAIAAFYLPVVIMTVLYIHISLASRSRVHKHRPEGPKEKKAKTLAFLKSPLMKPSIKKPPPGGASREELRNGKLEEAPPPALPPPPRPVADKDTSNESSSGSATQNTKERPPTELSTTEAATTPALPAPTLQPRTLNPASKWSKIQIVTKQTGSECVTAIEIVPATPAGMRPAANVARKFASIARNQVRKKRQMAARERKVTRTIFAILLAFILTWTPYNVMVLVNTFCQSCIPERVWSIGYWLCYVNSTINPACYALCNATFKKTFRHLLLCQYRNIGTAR

[3] = target: T1, Muscarinic acetylcholine receptor M4 (Mus musculus); assay: Agonist activity at muscarinic M4 receptor in wild type mouse hippocampal CA1 pyramidal neuron assessed as excitatory postsynaptic current amplitude at 5 uM by whole-cell electrophysiology relative to control; type: functional, tissue-based; details: Hippocampus
[4] = target: T2, Muscarinic acetylcholine receptor M1 (Rattus norvegicus) (UniProt P08482); assay: Allosteric activation of rat recombinant muscarinic M1 receptor expressed in CHO cells assessed as potentiation of acetylcholine-induced calcium mobilization at 10 uM after 1 hr by fluorescence assay; type: functional, cell-based
T2 sequence (whole entry): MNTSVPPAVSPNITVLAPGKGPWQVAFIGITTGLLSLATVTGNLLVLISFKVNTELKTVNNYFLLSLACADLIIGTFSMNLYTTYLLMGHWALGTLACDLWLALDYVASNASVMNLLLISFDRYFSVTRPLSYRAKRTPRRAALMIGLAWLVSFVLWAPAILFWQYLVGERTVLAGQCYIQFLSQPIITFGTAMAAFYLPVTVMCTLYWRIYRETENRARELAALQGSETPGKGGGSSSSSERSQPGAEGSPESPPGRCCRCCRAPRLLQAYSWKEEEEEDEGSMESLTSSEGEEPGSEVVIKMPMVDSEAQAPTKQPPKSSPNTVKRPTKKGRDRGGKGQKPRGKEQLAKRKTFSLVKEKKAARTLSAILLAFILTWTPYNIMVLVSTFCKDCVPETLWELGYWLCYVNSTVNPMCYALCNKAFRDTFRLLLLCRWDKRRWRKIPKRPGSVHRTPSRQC

[5] = Agonist activity at muscarinic receptor in M4 receptor knock out mouse hippocampal CA1 pyramidal neuron assessed as reduction of excitatory postsynaptic current amplitude at 5 uM by whole-cell electrophysiology in presence of carbachol relative to control; type: functional; details: Hippocampus
[6] = target: T3, Muscarinic acetylcholine receptor M4 (Rattus norvegicus) (UniProt P08485); assay: Agonist activity at muscarinic M4 receptor in Sprague-Dawley rat hippocampal CA1 pyramidal neuron assessed as reduction of inhibitory postsynaptic current at 5 uM by whole-cell electrophysiology in presence of carbachol relative to control; type: functional, tissue-based; details: Hippocampus
T3 sequence (whole entry): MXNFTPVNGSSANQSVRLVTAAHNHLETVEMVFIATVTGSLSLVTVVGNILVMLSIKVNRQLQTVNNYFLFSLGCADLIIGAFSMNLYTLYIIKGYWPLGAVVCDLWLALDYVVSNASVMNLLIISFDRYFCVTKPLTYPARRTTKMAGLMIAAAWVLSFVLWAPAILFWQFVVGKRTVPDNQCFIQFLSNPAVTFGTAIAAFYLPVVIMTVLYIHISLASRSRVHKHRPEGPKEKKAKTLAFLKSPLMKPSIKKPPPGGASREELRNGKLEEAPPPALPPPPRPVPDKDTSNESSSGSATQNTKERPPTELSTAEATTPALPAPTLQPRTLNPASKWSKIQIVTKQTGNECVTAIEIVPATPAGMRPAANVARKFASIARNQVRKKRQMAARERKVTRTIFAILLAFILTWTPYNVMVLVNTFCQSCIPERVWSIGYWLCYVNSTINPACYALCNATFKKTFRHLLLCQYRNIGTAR

[7] = target: T3, Muscarinic acetylcholine receptor M4 (Rattus norvegicus); assay: Agonist activity at muscarinic M4 receptor in Sprague-Dawley rat hippocampal CA1 pyramidal neuron assessed as reversible inhibition of excitatory postsynaptic current by whole-cell electrophysiology; type: functional, tissue-based; details: Hippocampus
[8] = target: T4, Muscarinic acetylcholine receptor M5 (Rattus norvegicus) (UniProt P08911); assay: Antagonist activity at rat recombinant muscarinic M5 receptor expressed in CHO cells assessed as calcium mobilization at 10 uM after 1 hr by fluorescence assay; type: functional, cell-based
T4 sequence (whole entry): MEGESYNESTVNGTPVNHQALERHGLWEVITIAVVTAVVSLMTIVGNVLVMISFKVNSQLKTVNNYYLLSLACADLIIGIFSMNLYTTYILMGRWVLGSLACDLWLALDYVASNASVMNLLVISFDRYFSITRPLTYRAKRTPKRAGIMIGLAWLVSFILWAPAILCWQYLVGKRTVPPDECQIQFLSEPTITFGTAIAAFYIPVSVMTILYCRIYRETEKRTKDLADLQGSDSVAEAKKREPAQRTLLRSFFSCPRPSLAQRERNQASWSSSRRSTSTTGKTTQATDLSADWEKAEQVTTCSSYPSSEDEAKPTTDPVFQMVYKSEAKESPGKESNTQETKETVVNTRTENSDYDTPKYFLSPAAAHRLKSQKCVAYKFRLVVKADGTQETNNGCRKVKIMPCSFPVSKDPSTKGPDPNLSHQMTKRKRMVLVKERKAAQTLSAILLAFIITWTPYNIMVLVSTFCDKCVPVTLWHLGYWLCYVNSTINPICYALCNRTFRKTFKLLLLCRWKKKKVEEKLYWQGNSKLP

[9] = target: T3, Muscarinic acetylcholine receptor M4 (Rattus norvegicus); assay: Allosteric activation of rat recombinant muscarinic M4 receptor expressed in CHO cells assessed as potentiation of acetylcholine-induced increase in [35S]GTPgammaS binding at 10 um after 1 hr by equilibrium binding assay; type: functional, cell-based
[10] = Agonist activity at muscarinic receptor in M4 receptor knock out mouse hippocampal CA1 pyramidal neuron assessed as reduction of inhibitory postsynaptic current amplitude at 2 uM by whole-cell electrophysiology in presence of carbachol relative to control; type: functional; details: Hippocampus
[11] = target: T3, Muscarinic acetylcholine receptor M4 (Rattus norvegicus); assay: Agonist activity at muscarinic M4 receptor in Sprague-Dawley rat hippocampal CA1 pyramidal neuron assessed as reduction of inhibitory postsynaptic current at 0.5 uM by whole-cell electrophysiology relative to control; type: functional, tissue-based; details: Hippocampus
[12] = Agonist activity at muscarinic receptor in M4 receptor knock out mouse hippocampal CA1 pyramidal neuron assessed as reduction of excitatory postsynaptic current amplitude at 2 uM by whole-cell electrophysiology relative to control; type: functional; details: Hippocampus

With `Cc1cc(C)c2c(N)c(C(=O)NCc3ccc(Cl)cc3)sc2n1` the Activity [1] was “inactive”, the inhibition [2] was 53.7% and the Activity [3] was 102%. The Activity [4] was “inactive”, the inhibition at 5 µM [5] was 77.5% and the inhibition [6] was 61.7%. For the same compound, the Activity [7] was “Dose-dependent effect”, the Activity [8] was “inactive” and the Activity [9] was 43%. It also gave an inhibition at 2 µM [10] of 60.2%, an inhibition [11] of 62.2% and an inhibition at 2 µM [12] of 70.8%.
